Data published in US10047105B2, “Gyrase inhibitors” (Merck Sharp & Dohme Corp., priority 2009, dated 2018).
Values after ≈ are worked out from the molar mass of the structure shown.

Columns and labels:
Assay type in all cases: cell-based
E. coli 8 ATCC 25922 = test: MIC, E. coli 8 (wt); conditions: E. coli 8 (EC8)
S. aureus ATCC 13709 = test: MIC, antibacterial potency, S. aureus; conditions: S. aureus (SA); in µg/mL
S. pneumoniae ATCC 51916 = test: MIC, S. pneumoniae; conditions: S. pneumoniae (Spn52); in µg/mL

| MIC EC8 (E. coli 8 ATCC 25922) [µg/mL] | MIC, SA (S. aureus ATCC 13709) | MIC Spn52 (S. pneumoniae ATCC 51916) | SMILES |
| --- | --- | --- | --- |
| > 16 | >16 | >16 | CCc1[nH]c2nc(Oc3cccc(C#N)c3)nc(C(C)N3CC4C(N)C4C3)c2c1Cl (stereo not drawn) [700,951] |
| > 64 | 64 | 64 | CCc1[nH]c2nc(Oc3cccc(C#N)c3)nc(C(C)N3CC4C(C3)C4(N)C(N)=O)c2c1Cl (stereo not drawn) [700,952] |
| > 32 | >32 | >32 | CCc1[nH]c2nc(Oc3cccc(C#N)c3)nc(C(C)NCCO)c2c1Cl (stereo not drawn) [700,953] |
| > 32 | >32 | >32 | CCc1[nH]c2nc(Oc3cccc(C#N)c3)nc(C(C)(NO)NO)c2c1Cl [700,954] |
| 16 (≈ 28.9 µM) | 8 | >64 | CCc1[nH]c2nc(Sc3ccc4c(N5CC[C@@H](N)C5)nc(C(=O)O)nc4c3)nc(N3CC[C@@H](N)C3)c2c1Cl [700,955] |
| > 64 | 8 | 32 | CCc1[nH]c2nc(Sc3ccc4c(N5CC(CN)C5)nc(C)nc4c3)nc(N3CC4C(C3)C4(N)C(N)=O)c2c1Cl (stereo not drawn) [700,956] |
| > 32 | <=0.5 | 1 | CCc1[nH]c2nc(Sc3cnc4nccnc4c3)nc(N3CC4CC(O)C4C3)c2c1Cl (stereo not drawn) [700,957] |
| > 32 | 2 | 4 | CCc1[nH]c2nc(Sc3cnc4cccnc4c3)nc(N3C[C@@H]4NCCO[C@H]4C3)c2c1Cl [700,958] |
| > 64 | 2 | 2 | CCc1[nH]c2nc(Sc3cnc4cccnc4c3)nc(N3C[C@@H]4NCCO[C@@H]4C3)c2c1Cl [700,959] |
| > 32 | 2 | 2 | CCc1[nH]c2nc(Sc3ccc4c(N5CC(N)C5)ncnc4c3)nc(N3C[C@@H]4[C@H](C3)[C@@]4(N)C(N)=O)c2c1Cl [700,960] |
| > 64 | 1 | 1 | CCc1[nH]c2nc(Oc3ccc4nccnc4c3)nc(C(C)=O)c2c1Cl [700,961] |
| > 8 | <=0.5 | 2 | CCc1[nH]c2nc(Oc3ccc4nccnc4c3)nc(N(C)C)c2c1Cl [700,962] |
| > 64 | 1 | 4 | CCc1[nH]c2nc(Oc3ccc4nccnc4c3)nc(N3CC(N)C3)c2c1Cl [700,963] |
| > 64 | <=0.5 | <=0.5 | CCc1[nH]c2nc(Oc3cnc4c(c3)ncn4C)nc(Oc3cncc(OC)c3)c2c1Br [700,964] |
| 64 (≈ 138 µM) | <=0.5 | <=0.5 | CCc1[nH]c2nc(Oc3ccc4nccnc4c3)nc(Oc3cncnc3)c2c1Br [700,965] |
| > 64 | <=0.5 | <=0.5 | CCc1[nH]c2nc(Oc3cncc(C#N)c3)nc(Oc3cccc(OC)c3)c2c1Br [700,966] |
| > 64 | <=0.5 | 4 | CCc1[nH]c2nc(Sc3cncnc3)nc(N3CC4C(C3)C4(N)C(N)=O)c2c1Cl (stereo not drawn) [700,967] |
| > 64 | 2 | >64 | CCc1[nH]c2nc(Sc3cnc(N)nc3)nc(N3CC4C(C3)C4(N)C(N)=O)c2c1Cl (stereo not drawn) [700,968] |
| > 64 | <=0.5 | 2 | CCc1[nH]c2nc(Sc3cncc(C#N)c3)nc(N3CC4C(C3)C4(N)C(N)=O)c2c1Cl (stereo not drawn) [700,969] |
| > 64 | 8 | 32 | CCc1[nH]c2nc(Sc3cc(C(=O)O)c4cnccc4c3)nc(N3CC[C@@H](N)C3)c2c1Cl [700,970] |
| > 64 | <=0.5 | 2 | CCc1[nH]c2nc(Sc3ccc4cc5c([n+]([O-])c4c3)CCNC5)nc(N3CC4C(C3)C4(N)C(N)=O)c2c1Cl (stereo not drawn) [700,971] |
| 4 (≈ 7.87 µM) | <=0.5 | 1 | CCc1[nH]c2nc(Sc3ccc4cc5c([n+]([O-])c4c3)CCNC5)nc(N3CC4C(N)C4C3)c2c1Cl (stereo not drawn) [700,972] |
| > 64 | <=0.5 | 2 | CCc1[nH]c2nc(Sc3ccc4c(c3)C(=O)NC4)nc(N3CC4C(C3)C4(N)C(N)=O)c2c1Cl (stereo not drawn) [700,973] |
| 32 (≈ 72.6 µM) | <=0.5 | 2 | CCc1[nH]c2nc(Sc3ccc4c(c3)C(=O)NC4)nc(N3CC4C(N)C4C3)c2c1Cl (stereo not drawn) [700,974] |
| > 64 | 8 | 8 | NC(=O)C1(N)C2CN(c3nc(Sc4cnc5nccnc5c4)nc4[nH]c(C5CC5)c(Cl)c34)CC21 (stereo not drawn) [700,975] |
| 8 (≈ 17.7 µM) | 4 | 2 | NC1C2CN(c3nc(Sc4cnc5nccnc5c4)nc4[nH]c(C5CC5)c(Cl)c34)CC12 (stereo not drawn) [700,976] |
| 8 (≈ 18.2 µM) | 16 | 4 | N[C@@H]1CCN(c2nc(Sc3cnc4nccnc4c3)nc3[nH]c(C4CC4)c(Cl)c23)C1 [700,977] |

| MIC EC8 (E. coli 8 ATCC 25922) [µg/mL] | MIC, SA (S. aureus ATCC 13709) | MIC Spn52 (S. pneumoniae ATCC 51916) | SMILES |
| --- | --- | --- | --- |
| > 64 | >64 | >64 | CC(C)(C)OC(=O)N[C@@H]1CCN(c2nc(Sc3cnc4nccnc4c3)nc3[nH]c(C4CC4)c(Cl)c23)C1 [700,978] |
| > 64 | <=0.5 | 4 | CCc1[nH]c2nc(Oc3ccc4nccnc4c3)nc(Oc3ccc4c(N)nc(N)nc4c3)c2c1Br [700,979] |
| > 32 | <=0.5 | 2 | CCc1[nH]c2nc(Oc3ccc4nccnc4c3)nc(N3CC4C(C3)C4(N)C(N)=O)c2c1Br (stereo not drawn) [700,980] |
| > 32 | 16 | 16 | CCc1[nH]c2nc(Oc3cncc(C#N)c3)nc(N3CC4C(C3)C4(N)C(N)=O)c2c1Cl (stereo not drawn) [700,981] |
| > 64 | <=0.5 | <=0.5 | CCc1[nH]c2nc(Oc3cncc(OC)c3)nc(Oc3cccc(C#N)c3)c2c1Br [700,982] |
| 32 (≈ 59.5 µM) | 32 | 32 | CCc1[nH]c2nc(Sc3ccc4c(N5CCC(N)CC5)nc(C)nc4c3)nc(N3CC[C@@H](N)C3)c2c1Cl [700,983] |
| 8 (≈ 14.5 µM) | 4 | 8 | CCc1[nH]c2nc(Sc3ccc4c(N5CCC(N)CC5)nc(C)nc4c3)nc(N3CC4C(N)C4C3)c2c1Cl (stereo not drawn) [700,984] |
| 64 (≈ 141 µM) | 1 | 2 | CCc1[nH]c2nc(Sc3cnc4nccnc4c3)nc(N3CCC4(CC4N)C3)c2c1Cl (stereo not drawn) [700,986] |
| > 64 | <=0.5 | <=0.5 | CCc1[nH]c2nc(Oc3ccc4nccnc4c3)nc(Oc3cncc(C#N)c3)c2c1Br [700,987] |
| > 64 | <=0.5 | <=0.5 | CCc1[nH]c2nc(Oc3ccc4nccnc4c3)nc(Oc3cnc4c(c3)ncn4C)c2c1Br [700,988] |
| > 64 | <=0.5 | <=0.5 | CCc1[nH]c2nc(Oc3ccc4nccnc4c3)nc(N3CC4C(C3)C4(N)C(N)=O)c2c1Cl (stereo not drawn) [700,989] |
| > 64 | 1 | 16 | CCc1[nH]c2nc(Sc3ccc4cc5c([n+]([O-])c4c3)CCNC5)nc(N3CCc4nc(N)sc4C3)c2c1Cl [700,990] |
| 32 (≈ 75.3 µM) | 1 | 2 | CCc1[nH]c2nc(Sc3ccc4cccnc4c3)nc(N3CC[C@@H](N)C3)c2c1Cl [700,991] |
| > 64 | <=0.5 | <=0.5 | CCc1[nH]c2nc(Sc3ccc4cccnc4c3)nc(N3CC4C(N)C4C3)c2c1Cl (stereo not drawn) [700,992] |
| 16 (≈ 36.3 µM) | <=0.5 | 2 | CCc1[nH]c2nc(Sc3ccc4ccc[n+]([O-])c4c3)nc(N3CC[C@@H](N)C3)c2c1Cl [700,993] |
| 8 (≈ 17.7 µM) | <=0.5 | <=0.5 | CCc1[nH]c2nc(Sc3ccc4ccc[n+]([O-])c4c3)nc(N3CC4C(N)C4C3)c2c1Cl (stereo not drawn) [700,994] |
| 64 (≈ 126 µM) | >64 | >64 | NC1CN(c2ncnc3cc(Sc4nc(N5CC[C@@H](N)C5)c5c(Cl)c(C6CC6)[nH]c5n4)ccc23)C1 [700,995] |
| > 64 | <=0.5 | <=0.5 | CCc1[nH]c2nc(Oc3cnc4c(c3)ncn4C)nc(Oc3cncc(C#N)c3)c2c1Br [700,996] |
| > 64 | <=0.5 | 1 | CCc1[nH]c2nc(Oc3ccc4nccnc4c3)nc(Oc3ccc4c(c3)ncn4C)c2c1Br [700,998] |
| > 64 | 2 | 2 | CCc1[nH]c2nc(Oc3cncc(C#N)c3)nc(N3CC[C@@H](NC(C)=O)C3)c2c1Cl [700,999] |
| 64 (≈ 156 µM) | 4 | 8 | CCc1[nH]c2nc(Oc3ccc4nccnc4c3)nc(N3CC[C@@H](N)C3)c2c1Cl [701,000] |
| > 64 | 4 | 8 | CCc1[nH]c2nc(Oc3ccc4nccnc4c3)nc(N3CC[C@@H](NC(C)=O)C3)c2c1Cl [701,001] |
| > 64 | 4 | >64 | CCc1[nH]c2nc(Sc3ccc(/C=C/C(=O)O)c(F)c3)nc(N3CC[C@@H](N)C3)c2c1Cl [701,002] |
| > 64 | >64 | 32 | CCc1[nH]c2nc(Sc3cnc4cccnc4c3)nc(N3CCNCCNCC3)c2c1Cl [701,003] |
| > 64 | 32 | >64 | CCc1[nH]c2nc(Sc3cnc4cccnc4c3)nc(N3C[C@H](C(=O)NC4CNC4)[C@@H](N)C3)c2c1Cl [701,004] |
| 16 (≈ 37.6 µM) | <=0.5 | <=0.5 | CCc1[nH]c2nc(Sc3ccc4nccnc4c3)nc(N3CC[C@@H](N)C3)c2c1Cl [701,005] |
